Experimental findings from patent US12565504B2, “Spirocyclic O-glycoprotein-2-acetamido-2-deoxy-3-d-glucopyranosidase inhibitors” (BIOGEN MA INC., priority 2019, dated 2026) are described below.

A word on the pIC50: it is the negative decadic logarithm of the IC50, by convention in mol/L.

SMILES strings stand for the structures. pIC50: −log10 of the molar value.

The nature of data set [1]: Rat Liver Microsome Stability Assay. The conditions noted are these: rat liver microsomes 0.5 mg/mL, compound 1 μM; Qh 55 mL/minute/kg.
Procedure: Aliquots (40 uL) at 0, 5, 10, 15, 25 and 40 minutes post NADPH addition (or compound addition for reactions in absence of NADPH) were transferred into individual 96-well plate wells containing 40 ng/ml of 8-cyclopently-1,3-dipropylxanthine (CPDPX, internal standard) in 160 uL acetonitrile:methanol (1:1 v/v).
The LC/MS/MS system consisted of an ultra high throughput RapidFire® 300 system (Agilent Technologies, Santa Clara, CA) coupled to a Triple Quad 5500 mass spectrometer (ABSciex, Foster City, CA). Sample load and wash were performed on a RapidFire® C4 cartridge using 0.1% formic acid in water as mobile phase A and sample elution using 0.1% formic acid in acetonitrile:methanol (1:1 v/v) as mobile phase B.
CLint, app (apparent intrinsic clearance) was calculated using the following equation for microsome stability.
[formula] • where “a” represents 45 grams of liver/kg of body weight for rat. • CLint,app (apparent intrinsic clearance) was calculated using the following equation for hepatocyte stability: • CLhep (hepatic clearance) was calculated using the following equation for microsomes
[formula] • using 55 mL/minute/kg as Qh (hepatic blood flow) for rat.
Data set [2] concerns P-gp (MDR1). As to the kind of experiment: MDR1-MDCK Efflux Ratio Assay. The data set is classed as in vitro ADME. The conditions noted are these: dog, MDR1-MDCK cells, pH 7.4, read-out: MDR1-MDCK Efflux Ratio (B-A/A-B). As for the experimental part:
MDR1-MDCK cell monolayers were grown to confluence on microporous polyester membranes in 96-well Corning insert plates. The permeability assay buffer was Hanks' Balanced Salt Solution containing 10 mM HEPES at pH of 7.4. Loperamide (1 μM) was used as a positive control P-gp substrate. Propranolol and Bestatin (1 μM) were used as high and low permeability comparators, respectively.
Test compounds or positive control P-gp substrate/permeability comprators were added to respective apical and basolateral chambers for bidirectional assessment of permeability. Receiver buffer (transport buffer supplemented with 1% bovine serum albumin) was added to respective receiver chambers. MDR1-MDCK cells were incubated with test compounds at 37° C. with 5% CO2 for 2 hr. Samples were collected from the donor chamber at both 0 and 120 minutes, and from the receiver chamber at 120 minutes. Test and control compound concentrations were determined using LC-MS/MS analysis. Each determination was performed in triplicate.

Data set [3] concerns the target Recombinant full length human OGA enzyme (Homo sapiens (Human), UniProt O60502). As to the kind of experiment: OGA Enzyme Inhibition Biochemical Assay. The conditions noted are these: 1 nM OGA, 100 μM 4-MUGlcNAc, 90 minutes, pH 6.4. As to the method:
Recombinant full length human OGA enzyme was purchased from Origene. 4-MUGlcNAc substrate was purchased from Sigma. All other reagents were purchased from Sigma or Fisher. Assay buffer consists of the McIlvaine buffer system, pH 6.4 (0.2M Na2HPO4 mixed with 0.1M citric acid) and 0.01% BSA. […] Reactions were incubated for 90 minutes at room temperature and quenched with 40 μl of 3M glycine, pH 10 and read on a Perkin Elmer Envision plate reader (Ex: 355 nm/Em: 460 nm). Compounds were tested with a 10-point dose-response starting from 20 μM with a 4-fold dilution. Data was fit using GraphPad Prism using a 4-parameter fit with variable slope.

In data set [4] the target is OGA (S400 O-GLCNAC) (Homo sapiens (Human), UniProt O60502). As to the kind of experiment: Cellular OGA-Tau MSD Assay. The format is cell-based. The conditions noted are these: HEK-293T cells transfected with OGT and Tau-V5; Tau-S400-GlcNAc MSD readout. As to the method:
HEK-293T cells were transfected with OGT and Tau-V5 plasmids using Lipofectamine and grown overnight. Next day, the cells were collected and re-plated at 1×10^5 cells per well in 96 well plates. Cells were incubated for 4 hr at 37° C., before compounds were added at 1 uM, with 3-fold dilutions in a 10-point titration. Cell plates were incubated with compounds overnight at 37° C. The next day media was removed from wells by gentle aspiration and 120 ul of 1× Cell Lysis buffer mixed with protease and phosphatase cocktail added to each well. A freeze thaw was performed at −80° C., then mixed before transferring 50 μl to MSD plates coated with V5-tag antibody to capture Tau. MSD Plates were incubated overnight at 4° C., on a plate shaker. The following day, plates were washed and incubated with Tau-S400-GlcNAc antibody for 2 hr and then developed with rabbit Sulfo-tag antibody. Final read out was carried out on an MSD 600 reader. The data was analyzed using Graph Pad or Genedata, the data was normalized and % activity versus log of compound concentration was plotted. The ICso values were obtained from a 4 parameter fit.

Chain of OGA (S400 O-GLCNAC) (O60502 whole entry): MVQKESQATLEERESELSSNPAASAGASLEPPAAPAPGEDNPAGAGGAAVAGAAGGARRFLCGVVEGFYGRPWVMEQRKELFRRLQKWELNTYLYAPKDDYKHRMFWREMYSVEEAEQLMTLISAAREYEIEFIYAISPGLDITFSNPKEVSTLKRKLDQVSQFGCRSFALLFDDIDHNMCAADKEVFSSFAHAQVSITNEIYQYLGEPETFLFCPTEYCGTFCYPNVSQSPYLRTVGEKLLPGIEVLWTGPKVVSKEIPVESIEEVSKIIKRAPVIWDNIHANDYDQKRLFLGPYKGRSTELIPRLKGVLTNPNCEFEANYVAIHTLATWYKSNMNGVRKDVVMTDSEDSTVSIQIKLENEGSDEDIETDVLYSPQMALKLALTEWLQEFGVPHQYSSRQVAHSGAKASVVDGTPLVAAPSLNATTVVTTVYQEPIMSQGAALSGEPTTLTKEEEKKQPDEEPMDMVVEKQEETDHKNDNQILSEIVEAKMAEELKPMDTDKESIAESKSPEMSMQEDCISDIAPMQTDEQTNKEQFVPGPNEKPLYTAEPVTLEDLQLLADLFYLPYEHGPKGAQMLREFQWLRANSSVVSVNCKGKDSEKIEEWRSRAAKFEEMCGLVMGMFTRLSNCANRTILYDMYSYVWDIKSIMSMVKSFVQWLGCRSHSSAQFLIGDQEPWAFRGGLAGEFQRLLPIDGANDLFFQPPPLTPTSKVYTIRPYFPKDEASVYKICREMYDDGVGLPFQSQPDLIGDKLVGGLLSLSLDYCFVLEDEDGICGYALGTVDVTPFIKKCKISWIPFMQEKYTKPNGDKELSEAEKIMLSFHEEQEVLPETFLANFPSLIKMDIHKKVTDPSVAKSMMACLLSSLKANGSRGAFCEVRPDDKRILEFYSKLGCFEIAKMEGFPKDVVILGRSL
Chain of Recombinant full length human OGA enzyme (O60502 whole entry): as above

Regarding `CC(=O)Nc1nc(F)c(CN2CCC3(Cc4cnc(Cl)cc4O3)C2)s1` (centres unmarked) [Example 7, N-(5-((6-Chloro-3H-spiro[furo[3,2-c]pyridine-2,3′-pyrrolidin]-1′-yl)methyl)-4-fluorothiazol-2-yl)acetamide], in data set [1], the “RLM % Qh (%)” value is listed as 46%. The efflux ratio at 2 hr in data set [2] was 6.7. For the same compound, the pIC50 is 7.27 in data set [3] and 6.52 in data set [4].
The corresponding values for `CC(=O)Nc1nc(F)c(CN2CCCC3(C2)OCc2c3cc[nH]c2=O)s1` (centres unmarked) [Example 86, N-(4-Fluoro-5-((4-oxo-4,5-dihydro-3H-spiro[furo[3,4-c]pyridine-1,3′-piperidin]-1′-yl)methyl)thiazol-2-yl)acetamide] are 37%, 32.6, 7.84 and 6.86.
`CC(=O)Nc1ncc(CN2CCCC3(CCCO3)C2)s1` (centres unmarked) [Example 52, N-(5-((1-Oxa-7-azaspiro[4.5]decan-7-yl)methyl)thiazol-2-yl)acetamide]: the “RLM % Qh (%)” value in data set [1] is given as 74%. For the same compound, in data set [2], the efflux ratio at 2 hr was determined as 2.6. For the same compound, the pIC50 is 6.74 in data set [3] and under 6.00 in data set [4].
The corresponding values for `COc1cc2c(cn1)[C@]1(C[C@H](C)N(Cc3cnc(NC(C)=O)s3)C1)OC2` (single isomer, unassigned) [Example 76-a] are 58%, 17.7, 7.26 and 7.21.
The like results for `COCCOc1cc2c(cn1)O[C@]1(C2)C[C@H](C)N(Cc2sc(NC(C)=O)nc2F)C1` [Example 47, N-(4-Fluoro-5-(((2R,5′S)-5-(2-methoxyethoxy)-5′-methyl-3H-spiro[furo[2,3-c]pyridine-2,3′-pyrrolidin]-1′-yl)methyl)thiazol-2-yl)acetamide] were, in that order, 53%, 9.2, over 9.00 and 8.05.
On to `CC(=O)Nc1ncc(CN2C[C@@]3(Cc4cc(Cl)ncc4O3)C[C@@H]2C)s1` [Example 11, N-(5-(((2R,5′S)-5-Chloro-5′-methyl-3H-spiro[furo[2,3-c]pyridine-2,3′-pyrrolidin]-1′-yl)methyl)thiazol-2-yl)acetamide], for which the “RLM % Qh (%)” value in data set [1] came to 70%. In addition, the efflux ratio at 2 hr in data set [2] was 8.4. Besides, the pIC50 in data set [3] is 8.22; in data set [4], 8.05.
The corresponding values for `CC(=O)Nc1nc(F)c(CN2CCCC3(COc4ccccc43)C2)s1` (centres unmarked) [Example 54, N-(5-((2H-Spiro[benzofuran-3,3′-piperidin]-1′-yl)methyl)-4-fluorothiazol-2-yl)acetamide] are 94%, 0.8, 5.82 and under 6.00.
The like results for `CC(=O)Nc1nc(F)c(CN2C[C@@]3(Cc4cc(N5C[C@@H](C)O[C@H](C)C5)ncc4O3)C[C@@H]2C)s1` [Example 41, N-(5-(((2R,5′S)-5-((2R,6R)-2,6-Dimethylmorpholino)-5′-methyl-3H-spiro[furo[2,3-c]pyridine-2,3′-pyrrolidin]-1′-yl)methyl)-4-fluorothiazol-2-yl)acetamide] were, in that order, 65%, 19.5, over 9.00 and 8.10.
For `CC(=O)Nc1nc(F)c(CN2C[C@@]3(Cc4cc(N5C[C@@H](C)O[C@@H](C)C5)ncc4O3)C[C@@H]2C)s1` [Example 39, N-(5-(((2R,5′S)-5-((2R,6S)-2,6-Dimethylmorpholino)-5′-methyl-3H-spiro[furo[2,3-c]pyridine-2,3′-pyrrolidin]-1′-yl)methyl)-4-fluorothiazol-2-yl)acetamide], the “RLM % Qh (%)” value in data set [1] is recorded as 52%. For the same compound, the efflux ratio at 2 hr in data set [2] came to 9.7. In addition, the pIC50 is 9.30 in data set [3] and 8.31 in data set [4].
In the case of `CC(=O)Nc1ncc(CN2CCC3(C2)OCc2ccccc23)s1` (centres unmarked) [Example 57, N-(5-((3H-Spiro[isobenzofuran-1,3′-pyrrolidin]-1′-yl)methyl)thiazol-2-yl)acetamide], the “RLM % Qh (%)” value in data set [1] is on record as 88%. Also, the efflux ratio at 2 hr in data set [2] came out at 2.4. Also, the figures for the pIC50 in data set [3] and in data set [4] were 6.77 and 6.09, respectively.
Take `CC(=O)Nc1nc(F)c(CN2C[C@@]3(Cc4cc(C(F)F)ncc4O3)C[C@@H]2C)s1` [Example 26, N-(5-(((2R,5′S)-5-(Difluoromethyl)-5′-methyl-3H-spiro[furo[2,3-c]pyridine-2,3′-pyrrolidin]-1′-yl)methyl)-4-fluorothiazol-2-yl)acetamide]: the “RLM % Qh (%)” value in data set [1] amounted to 51%. Besides, in data set [2], the efflux ratio at 2 hr worked out at 5.6. Besides, the figures for the pIC50 in data set [3] and in data set [4] were 8.52 and 8.30, respectively.
The corresponding values for `CC(=O)Nc1ncc(CN2C[C@@]3(Cc4cc(N5C[C@@H](C)O[C@H](C)C5)ncc4O3)C[C@@H]2C)s1` [Example 40, N-(5-(((2R,5′S)-5-((2R,6R)-2,6-Dimethylmorpholino)-5′-methyl-3H-spiro[furo[2,3-c]pyridine-2,3′-pyrrolidin]-1′-yl)methyl)thiazol-2-yl)acetamide] are 54%, 27, 8.82 and 7.85.
The like results for `CC(=O)Nc1nc(F)c(CN2C[C@@]3(Cc4cc(N5C[C@H](C)O[C@@H](C)C5)ncc4O3)C[C@@H]2C)s1` [Example 43, N-(5-(((2R,5′S)-5-((2S,6S)-2,6-Dimethylmorpholino)-5′-methyl-3H-spiro[furo[2,3-c]pyridine-2,3′-pyrrolidin]-1′-yl)methyl)-4-fluorothiazol-2-yl)acetamide] were, in that order, 75%, 17.5, over 9.00 and 8.10.
The like results for `CC(=O)Nc1nc(F)c(CN2CC3(C[C@@H]2C)OCc2cccnc23)s1` (stereo partly drawn) [Example 63, N-(4-Fluoro-5-(((5′S)-5′-methyl-5H-spiro[furo[3,4-b]pyridine-7,3′-pyrrolidin]-1′-yl)methyl)thiazol-2-yl)acetamide] were, in that order, 78%, 26, 7.89 and 7.24.
In the case of `CC(=O)Nc1nc(F)c(CN2C[C@@]3(Cc4cc(N5CCN(C)CC5)ncc4O3)C[C@@H]2C)s1` [Example 45, N-(4-Fluoro-5-(((2R,5′S)-5′-methyl-5-(4-methylpiperazin-1-yl)-3H-spiro[furo[2,3-c]pyridine-2,3′-pyrrolidin]-1′-yl)methyl)thiazol-2-yl)acetamide], the “RLM % Qh (%)” value in data set [1] is on record as 65%. Besides, in data set [2], the efflux ratio at 2 hr worked out at 94. Moreover, the pIC50 in data set [3] was over 9.00; in data set [4], 8.52.
Regarding `COc1cc2c(cn1)[C@]1(C[C@H](C)N(Cc3sc(NC(C)=O)nc3F)C1)OC2` (single isomer, unassigned) [Example 75-a], the “RLM % Qh (%)” value in data set [1] is 59%. Also, in data set [2], the efflux ratio at 2 h worked out at 7.8. In data set [4], this compound gave a pIC50 of 7.40.
The corresponding values for `COc1cc2c(cn1)[C@@]1(C[C@H](C)N(Cc3sc(NC(C)=O)nc3F)C1)OC2` (single isomer, unassigned) [Example 75-b] are 89%, 5.4 and 7.62.
Take `CC(=O)Nc1ncc(CN2C[C@@]3(Cc4cc(C(F)F)ncc4O3)C[C@@H]2C)s1` [Example 27, N-(5-(((2R,5′S)-5-(Difluoromethyl)-5′-methyl-3H-spiro[furo[2,3-c]pyridine-2,3′-pyrrolidin]-1′-yl)methyl)thiazol-2-yl)acetamide]: the values for the pIC50 in data set [3] and in data set [4] were 7.96 and 7.80, respectively.
